“Also recorded” adds a separate entry of the source.
What was measured:
[1] = test system: hippocampal neurons overexpressing CCNY-WT-EGFP; assay: Confocal imaging of CCNY-WT-EGFP membrane association in neurons treated with palmitoylation blocker; format: cell-based, rat; settings: 2-bromopalmitate 100 μM, 4 hours, hippocampal neurons (FIG. 1D)
Procedure: Specifically, (A) is a confocal single-plane image of hippocampal neurons overexpressing EGFP-tagged CCNY-WT. […] The scale bars are 20 μm (top) and 5 μm (bottom). […] The scale bar is 20 μm.
HEK 293T cells were grown in DMEM (Gibco) supplemented with 10% fetal bovine serum. Hippocampal neuronal cultures were prepared from E18 Sprague-Dawley (SD) rat embryos. The hippocampal neurons were grown on poly-D-lysine ([…]; Sigma)-coated 18 mm glass coverslips and maintained for 10 to 21 days in vitro (DIV) in 12-well plates containing B27 and Glutamax-supplemented Neurobasal medium (Gibco) at 37° C. in an incubator equilibrated with 5% CO2 (Cho et al., 2015). The culture contains glial cells that were grown up to 70% to 80% confluency, where further growth was inhibited by treatment of 5-fluoro-2′-deoxyuridine (FUdR) ([…]; Sigma).
Neurons were transfected at 10 to 15 DIV using Lipofectamine 2000 (Invitrogen) for 1 to 6 days, and then experiments were performed at 14 to 17 DIV. All experiments handling animals and their embryos were performed in accordance with the guidelines and regulations of the Korea Institute of Science and Technology (KIST). All experimental protocols were approved by the KIST Institutional Animal Care and Use Committee (IACUC; approval number 2018-048). […]

[2] = test system: CCNY; assay: Acyl-biotinyl exchange (ABE) assay of CCNY palmitoylation in HEK293T cells; format: cell-based; settings: 4 hours prior to ABE assay, HEK293T cells (FIG. 3B)
Procedure: (§1) All images are single-plane images. […] The scale bars are 5 (B and C) show the results of an acyl-biotinyl exchange (ABE) assay. CCNY-WT-EGFP or CCNY-Mut(C7, 8S)-EGFP were overexpressed in HEK293T cells, and the cells were subsequently treated with a palmitoylation blocker, 2-bromopalmitate (2-BP, 30 μM or 100 μM), for 4 hours prior to the ABE assay.
(§2) The ABE assay was performed as previously described (Wan et al., 2007) with minor modifications. Briefly, HEK293T cells were transfected with CCNY-WT-EGFP, CCNY-Mut(C7,8S)-EGFP, or PSD-95-WT-EGFP. PSD-95-WT-EGFP was transfected with or without DHHC2-HA. Twenty four hours after transfection, the cells were lysed in lysis buffer (150 mM NaCl, 50 mM Tris, 5 mM EDTA, protease inhibitor cocktail, 1 mM PMSF, pH 7.4) with 1.7% Triton X-100 and 10 mM N-ethylmaleimide (NEM) for 1 hour at 4° C. The cell lysates were centrifuged at 250 g for 5 minutes at 4° C., and the resultant supernatants were applied to the chloroform-methanol (CM) precipitation methodology. […] The eluted samples in loading buffer (50 mM Tris-HCl, pH 6.8, 5% β-mercaptoethanol, 2% SDS, 0.01% bromophenol blue) were then boiled for 10 minutes at 95° C., applied to SDS-PAGE, and analyzed by immunoreactions with anti-CCNY (Proteintech Group), anti-PSD-95 (Thermo Scientific) and anti-GFP (Roche). […]

[3] = test system: PSD-95; assay: Acyl-biotinyl exchange (ABE) assay of PSD-95 palmitoylation (positive control) in HEK293T cells; format: cell-based; settings: in the presence of 2-bromopalmitate, HEK293T cells (FIG. 3C)
Procedure: as §1, §2

## CCCCCCCCCCCCCCC(Br)C(=O)O (stereo not shown) [2-bromopalmitate]
[1]
  membrane-associated localization of CCNY-WT-EGFP on the neuronal cell surface: altered
[2]; 2-bromopalmitate 30 μM
  palmitoylation of CCNY-WT-EGFP (ABE assay): no palmitoylation was detected; also recorded: blocked
[2]; 2-bromopalmitate 100 μM
  palmitoylation of CCNY-WT-EGFP (ABE assay): no palmitoylation was detected; also recorded: blocked
[3]
  palmitoylation of PSD-95 (ABE assay): inhibited

From patent US11161888B2, “Method for regulating targeting of Cyclin Y (CCNY) protein to synapses” (KOREA INSTITUTE OF SCIENCE AND TECHNOLOGY, priority 2018, dated 2021)
